Like-named read-outs stand apart in the source and are kept apart here.
What was measured:
[1] = biological target: T1, Can f 1 (Canis lupus familiaris, UniProt O18873); assay: Competitive fluorescence-quenching assay, Can f 1; assay type: binding, dog; conditions: read-out: Mean fluorescence inhibition
T1 construct: made in house; host or cells: E. coli Rosetta-gami 2(DE3)
Description: (§1) Fluorescence quenching assays were performed as previously described ([45]), with modifications. Fluorochromes and ligands were purchased from Sigma Aldrich (Steinheim, Germany), Carl Roth (Karlsruhe, Germany) and TCI Europe N.V. (Zwijndrecht, Belgium).
(§2) Stock solutions were prepared at a concentration of 10 mM in 100% ethanol for the fluorochromes 1-aminoanthracene (1-AMA), 8-anilino-1-naphthalensulfonic acid (1,8-ANS) and for all ligands, and in 100% methanol for n-phenyl-1-naphthylamine (1-NPN), respectively. Iron catecholate ligands (siderophores) were prepared as previously described ([46]). Fluorochrome-protein complexes were analyzed at an equimolar concentration of 5 μM in PBS with 5% ethanol in a volume of 100 μL per well in black 96-well non-binding microplates (Greiner Bio-One GmbH, Frickenhausen, Germany). Solutions containing only protein or the respective fluorescent probe in PBS with 5% ethanol served as controls. Fluorochrome-protein complexes were incubated with orbital shaking for 10 min at 500 rpm at room temperature (RT) before measurement using the fluorescence reader TECAN Infinite 200 Pro (Tecan Trading AG, Switzerland). Excitation wavelengths were fixed at 380 nm for 1-AMA and 1,8-ANS, and 337 nm for 1-NPN. Fluorescence emission spectra were recorded in 5 nm steps between 420 and 560 nm for 1-AMA and 1,8-ANS and between 380 and 500 nm for 1-NPN. The establishment of fluorescent quenching assay parameters for each allergen is explained in the results Section Fluorescence-quenching assay set up. Binding affinities were analyzed by non-linear regression in GraphPad Prism Version 9.3.1 (GraphPad Software, LLC). For the ligand competition assays, ligands were added to fluorochrome-allergen complexes with a final buffer composition of 5% ethanol in PBS in a volume of 100 μL and incubated for 30 min at 500 rpm at RT and further equilibrated for another 30 min without shaking before fluorescence measurement.
(§3) The binding affinities of non-fluorescent ligands is inferred to by their ability to compete and displace the fluorochromes bound to the allergen at a certain concentration. This leads to a measurable decrease in fluorescence intensity that will be expressed as fluorescence inhibition (Figure 6). For a given allergen, the ligand with the strongest inhibition has the highest binding affinity. […] Competitive ligand binding was analyzed by non-linear regression and inhibitory dissociation constants (Ki) were calculated.

[2] = biological target: T2, human LCN1 (Homo sapiens, UniProt P31025); assay: Competitive fluorescence-quenching assay, LCN1; assay type: binding; conditions: 5 μM LCN1-1,8-ANS complex, 50 μM ligand, n = 2
T2 construct: made in house; host or cells: E. coli Rosetta-gami 2(DE3)
Description: as §1, §2, §3

[3] = biological target: Cav p 1.0101 (Cavia porcellus, UniProt A0A484HM70, S19A); assay: Competitive fluorescence-quenching assay, Cav p 1.0101; assay type: binding, guinea pig; conditions: for inhibition at 50 µM / Mean fluorescence inhibition: 5 μM Cav p 1.0101-1-AMA complex, 50 μM ligand, n = 2
Description: as §1, §2, §3

[4] = biological target: Cav p 1.0201 (Cavia porcellus, UniProt A0A484HRI4); assay: Competitive fluorescence-quenching assay, Cav p 1.0201; assay type: binding, guinea pig; conditions: for inhibition at 50 µM / Mean fluorescence inhibition: 5 μM Cav p 1.0201-1-AMA complex, 50 μM ligand, n = 2
Description: as §1, §2, §3

[5] = biological target: Ory c 2; assay: Competitive fluorescence-quenching assay, Ory c 2; assay type: binding, rabbit; conditions: for Mean fluorescence inhibition: 5 μM Ory c 2-1-AMA complex, 50 μM ligand, n = 2
Description: as §1, §2, §3

[6] = biological target: Ory c 3 (Oryctolagus cuniculus, UniProt Q9GK63+Q9GK67); assay: Competitive fluorescence-quenching assay, Ory c 3; assay type: binding, rabbit; conditions: for inhibition at 50 µM: read-out: Mean fluorescence inhibition
Description: as §1, §2, §3

[7] = biological target: T3, Fel d 1 (Felis catus, UniProt P30438+P30440); assay: Competitive fluorescence-quenching assay, Fel d 1; assay type: binding, cat; conditions: for Ki: Ligand inhibition constant Ki
T3 construct: polyhistidine tag (C); made in house; host or cells: E. coli Rosetta-gami 2
T3 sequence (P30438+P30440 with tags, fused parts or gaps): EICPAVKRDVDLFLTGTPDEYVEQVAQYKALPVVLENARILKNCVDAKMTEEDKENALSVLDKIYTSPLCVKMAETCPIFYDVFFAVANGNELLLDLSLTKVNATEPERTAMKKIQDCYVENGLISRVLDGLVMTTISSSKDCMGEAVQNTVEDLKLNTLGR
Description: as §1, §2, §3

[8] = biological target: T4, Fel d 4 (Felis catus, UniProt Q5VFH6); assay: Competitive fluorescence-quenching assay, Fel d 4; assay type: binding, cat; conditions: for Ki: 5 μM Fel d 4, fluorochrome 1-NPN, to be interpreted with caution, imprecise Ki values, read-out: Ligand inhibition constant Ki; for inhibition at 100 µM: read-out: Mean fluorescence inhibition
T4 construct: polyhistidine tag (C); made in house; host or cells: E. coli Rosetta-gami 2
T4 sequence (Q5VFH6 16-186): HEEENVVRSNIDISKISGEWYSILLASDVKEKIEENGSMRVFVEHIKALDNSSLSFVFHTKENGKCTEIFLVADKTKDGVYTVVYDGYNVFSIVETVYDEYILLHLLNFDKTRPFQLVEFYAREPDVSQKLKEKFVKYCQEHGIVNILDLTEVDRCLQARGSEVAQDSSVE
Description: as §1, §2, §3

[9] = biological target: T5, Can f 6 (Canis lupus familiaris, UniProt H2B3G5); assay: Competitive fluorescence-quenching assay, Can f 6; assay type: binding, dog; conditions: for inhibition at 100 µM: read-out: Mean fluorescence inhibition; for Ki: 5 μM Can f 6, fluorochrome 1-NPN, to be interpreted with caution, imprecise Ki values, read-out: Ligand inhibition constant Ki
T5 construct: polyhistidine tag (C); made in house; host or cells: E. coli Rosetta-gami 2
T5 sequence (H2B3G5 16-190): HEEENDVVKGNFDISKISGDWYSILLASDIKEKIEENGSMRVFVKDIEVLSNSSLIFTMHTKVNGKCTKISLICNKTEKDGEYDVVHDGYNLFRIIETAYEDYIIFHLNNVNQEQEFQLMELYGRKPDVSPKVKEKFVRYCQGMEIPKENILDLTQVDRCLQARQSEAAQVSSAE
Description: as §1, §2, §3

[10] = 5 μM Can f 1-1,8-ANS complex, 50 μM ligand, n = 2
[11] = 5 μM Ory c 3-1-AMA complex, 50 μM ligand, n = 2
[12] = 5 μM Fel d 1 + 1,8-ANS complex, 100 μM ligand, read-out: Mean fluorescence inhibition
[13] = 5 μM Fel d 1 + 1-NPN complex, 100 μM ligand, read-out: Mean fluorescence inhibition
[14] = 5 μM Fel d 4-1-NPN complex, 100 μM ligand
[15] = 5 μM Can f 6-1-NPN complex, 100 μM ligand, high standard error
[16] = 5 μM Fel d 1 + 1,8-ANS complex, 100 μM ligand

CC(C)=CCC/C(C)=C/CC/C(C)=C/CO [Farnesol, farnesol]
inhibition at 50 µM [1, 10]: 43.1% | inhibition at 50 µM [2]: 90.9% | inhibition at 50 µM [3]: 98.9% | Ki ([3]; Ki (printed in Figure 6D), Cav p 1.0101, titration 0–60 μM ligand, unit inferred): 0.58 µM | Ki ([3]; Ligand inhibition constant Ki, 5 μM Cav p 1.0101, fluorochrome 1-AMA): 0.6 µM | Ki ([4]; 5 μM Cav p 1.0201, fluorochrome 1-AMA, read-out: Ligand inhibition constant Ki): 0.6 µM | inhibition at 50 µM [4]: 95.5% | Ki ([5]; 5 μM Ory c 2, fluorochrome 1-AMA, read-out: Ligand inhibition constant Ki): 1.1 µM | Mean fluorescence inhibition [5]: 96.0% | inhibition at 50 µM [6, 11]: 91.3% | inhibition at 100 µM [7, 12]: 11.2%

CCCCCCCCO [Caprylic alcohol, 1-octanol]
inhibition at 50 µM [3]: 86.7% | inhibition at 50 µM [4]: 82.1% | Mean fluorescence inhibition [5]: 65.3% | inhibition at 50 µM [6, 11]: 68.8% | inhibition at 100 µM [7, 12]: 56.5% | inhibition at 100 µM [7, 13]: 49.2%

CC(C)c1ccccc1O [2-Isopropylphenol, 2-isopropylphenol]
Ki [8]: 20.1 µM | inhibition at 100 µM [8, 14]: 99.5% | inhibition at 100 µM [9, 15]: 105%

CC1=C(/C=C/C(C)=C/C=C/C(C)=C/CO)C(C)(C)CCC1 [Retinol, retinol]
inhibition at 50 µM [1, 10]: 49% | inhibition at 50 µM [2]: 84.3%

CC(C)CCCC(C)CCO (stereo not shown) [3,7-dimethyl-1-octanol]
inhibition at 50 µM [3]: 96.4% | inhibition at 50 µM [4]: 80.3% | Mean fluorescence inhibition [5]: 72.5% | inhibition at 50 µM [6, 11]: 91.1% | inhibition at 100 µM [7, 12]: 58.3% | inhibition at 100 µM [7, 13]: 85.4% | inhibition at 100 µM [8, 14]: 89.5% | inhibition at 100 µM [9, 15]: 100%

CC(C)CCC[C@@H](C)[C@H]1CC[C@H]2[C@@H]3CC=C4C[C@@H](O)CC[C@]4(C)[C@H]3CC[C@]12C [cholesterol]
Mean fluorescence inhibition [3]: not observed | Mean fluorescence inhibition [4]: not observed

CCCCCCCCCCCCCCO [Tetradecanol, tetradecanol]
Mean fluorescence inhibition [3]: 82.4% | Mean fluorescence inhibition [4]: 97.9% | Mean fluorescence inhibition [5]: 55.4% | Mean fluorescence inhibition [6, 11]: 92.9% | Mean fluorescence inhibition [7, 16]: 0.0%

C[C@]12CC[C@H]3[C@@H](CCC4=CC(=O)CC[C@@]43C)[C@@H]1CC[C@@H]2O [Testosterone, testosterone]
Mean fluorescence inhibition [3]: not observed | Mean fluorescence inhibition [4]: not observed | inhibition at 100 µM [8]: 92.2% | inhibition at 100 µM [9]: 43.7%

COc1nccnc1CC(C)C [IBMP, 2-isobutyl-3-methoxypyrazine]
Ki [8]: 39.2 µM | inhibition at 100 µM [8, 14]: 96.8% | Ki [9]: 49.6 µM | inhibition at 100 µM [9, 15]: 118%

CCCCCCCCCCCC(=O)O [Dodecanoic acid, dodecanoic acid]
inhibition at 50 µM [6]: 76.2% | Ki ([7]; 5 μM Fel d 1, fluorochrome 1,8-ANS): 26.7 µM | Ki ([7]; 5 μM Fel d 1, fluorochrome 1-NPN): 14.4 µM | inhibition at 100 µM ([7]; read-out: Mean fluorescence inhibition, 5 μM Fel d 1 + 1,8-ANS complex, 100 μM ligand): 75.2% | inhibition at 100 µM ([7]; read-out: Mean fluorescence inhibition, 5 μM Fel d 1 + 1-NPN complex, 100 μM ligand): 91.7%

CCCCCCCCN [Octanamine, octanamine]
Mean fluorescence inhibition [6, 11]: 54.7% | Mean fluorescence inhibition [7, 16]: 37.7% | Mean fluorescence inhibition ([7]; 5 μM Fel d 1 + 1-NPN complex, 100 μM ligand): 81.1% | Mean fluorescence inhibition [8, 14]: 94.9% | Ki [9]: 273 µM | Mean fluorescence inhibition [9, 15]: 148.7%

CCCCCCCCCCCCCCC(=O)O [Pentadecanoic acid, pentadecanoic acid]
inhibition at 50 µM [1]: 41.4% | inhibition at 50 µM [2]: 88.7%
